# Assay results from patent US5476848A, “14B(R) isomers of novel tetracyclic compounds having anti-allergic and anti-asthmatic activities, and their use” (Sankyo Company, Limited, priority 1989, dated 1995).
# Where a name gives a salt, the structure may show the parent alone.
# How the values were obtained:
# [1] = tested on: Passive Cutaneous Anaphylaxis (PCA); assay: Inhibitory effect on passive cutaneous anaphylaxis (PCA) in rats (Test Example 1); format: in vivo, rat (male SD); conditions: Rattus norvegicus, po, read-out: Inhibitory rate
# Procedure: (§1) Male SD rats (5 weeks old) were used as the test animals in groups, each containing 4 animals. The rats were sensitized by intradermal injection of 0.05 ml of the diluted antiserum solution in the dorsal position. 48 hours after this injection, a suspension of the test compound in an aqueous 0.5% w/v tragacanth solution was orally administered to the rats, fasted for one day, and 60 minutes later they were injected in the caudal vein with 5 ml/kg body weight of physiological saline containing 0.4% w/v egg albumin and 1.0% w/v Evans Blue.
# (§2) The inhibitory rate was calculated by the following equation.
# (§3) Inhibitory rate (%)=(1-B/A)×100
# (§4) A: amount of exuded dye in the control group
# (§5) B: amount of exuded dye in the test group.
# [2] = tested on: Passive Cutaneous Anaphylaxis (PCA); assay: Inhibitory effect on passive cutaneous anaphylaxis (PCA) in rats (Test Example 1"); format: in vivo, rat (male SD); conditions: Rattus norvegicus, po, read-out: Inhibitory rate; for inhibition at 3.1 mg/kg: 3.1 mg/kg (Table 3"); for inhibition at 0.05 mg/kg: 0.05 mg/kg (Table 3"); for inhibition at 0.2 mg/kg: 0.2 mg/kg (Table 3")
# Procedure: as §1, with “48 hours after this injection, a suspension of the test compound in an aqueous 0.5% w/v tragacanth solution was orally administered to the rats, fasted for one day, and” left out, “w/v of” for “w/v”
# as §2, §3, §4, §5
# [3] = tested on: pentobarbital anesthesia; assay: Prolongation of pentobarbital anesthesia (Test Example 3); format: in vivo, guinea pig (male Hartley); conditions: for AD (oral dose which prolonged the pentobarbital-induced anesthesia by 15%, AD15): 1 hr before pentobarbital 30 mg/kg s.c.
# Description: Sedation is the side effect with the highest incidence in histamine (H1)-blockers and anti-allergic drugs with an H1 blocking effect (Douglas, W. W. (1980) The Pharmacological Basis of Therapeutis, A. Goodman Gilman, L. S. Goodman, A. Gilman (eds), Macmillian, New York) and therefore anti-allergic drugs which overcome this disadvantage are needed. We investigated the effects of test compounds on pentobarbital anesthesia as a method for measuring incidence of sedation in animals.
# Prolongation effects on anesthesia are usually investigated with ethanol or thiopental (in mice and rats). However, we investigated it with pentobarbital in guinea pigs because our data with pentobarbital corresponded well with the clinical data, that is, the incidence of sedation of other anti-allergic drugs in clinical use.
# Sodium Pentobarbital (30 mg/kg) was subcutaneously injected into the backs of male Hartley guinea pigs weighing approximately 400 g, and the duration of postural reflex abolition was then measured.
# Test compounds were administered orally 1 hr before the pentobarbital injection. The prolongation rate obtained with the test compound was calculated by comparison to the control (the duration of pentobarbital anesthesia in animals untreated with the test compounds). In addition, the AD15 value (the oral dose which prolonged the pentobarbital-induced anesthesia by 15%) was determined, and the results are shown in the table.
# [4] = tested on: eosinophil accumulation; assay: Inhibitory effect on antigen induced eosinophil accumulation (Test Example 4); format: in vivo, guinea pig (male Hartley); conditions: Cavia porcellus, Eosinophil, po, 1 hr before antigen challenge, BALF 24 hr after;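 note: oral dose 0.1 mg/kg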
# Procedure: Male Hartley guinea pigs weighing approximately 400 g were sensitized with ovalbumin by the method described by Engineer et al. (Engineer, D. M. et al., J. Pharmacol., 62, 61-66 (1978)), and the number of eosinophils infiltrating into the bronchoalveolar space due to antigen challenge was examined.
# Briefly, the animals were exposed to the antigen (ovalbumin) for 6 min. At 24 hr. after antigen challenge, the guinea pigs were anesthetized with pentobarbital (30 mg/kg, i.p.). The trachea was cannulated by a disposable intravenous catheter, and the airway lumen (especially in the right posterior lobe) was washed with 0.9% saline (10 ml/kg) kept at 37° C. The bronchoalveolar lavage fluid (BALF) from each animal was centrifuged (150 g for 10 min at 4° C.). After removing the supernatant, the cell pellet was resuspended in HBSS (Hank's balanced solution) and a total cell count was performed using a standard hemocytometer. Differential cell counts were done on smears fixed in methanol and stained with Wright-Giemsa solution, and by light microscopy under oil immersion (×1000). The proportion of eosinophil population was expressed as a percentage of total cells, and this ratio together with the total cell count was used to calculate the total number of eosinophils. The percent inhibition of the test compounds which was administered 1 hr before antigen challenge, was calculated as follows:
# Percent inhibition=[1-(C-A)/(B-A)]×100
# A: negative control: mean value of cell counts in BALF from the animals with inhaled saline
# B: positive control: mean value of cell counts in BALF from the animals 24 h after antigen challenge
# C: cell counts of BALF for the animals pretreated with a test compound 24 h after antigen challenge
# [5] = tested on: eosinophil chemotaxis; assay: Inhibitory effect of eosinophil chemotaxis to zymosan-activated serum (Test Example 4); format: cell-based, guinea pig; conditions: Cavia porcellus, Eosinophil, 0.1 μg/ml; ZAS
# Description: Eosinophils were harvested from the peritoneal cavity of polymyxin B-treated guinea pigs (body weight, approx. 400 g) according to the method described by Pincus (Pincus, S. H. et al.: Blood, 52, 127-134 (1978)). The eosinophils were separated and purified by Ficoll-paque (Pharmacia) density gradient centrifugation. Then, the eosinophil chemotaxis to zymosan-activated serum (ZAS) was investigated by a modification of the Boyden micropore filter technique (Gosset, P. et al.: Clin. Exp. Immunol., 65, 654-663 (1986)). Briefly, the assay was carried out in a 48-well microchemotaxis assembly (Neuroprobe; Cabin John, Md., U.S.A.). Cell suspensions were adjusted to 2.5×10^5 /50 μl, and placed in the upper chamber separated from the chemoattractant (ZAS) solution in the lower chamber by a 3 μm pore size polycarbonate membrane filter (Nucleopore Co., Pleasanton, U.S.A.). The cells were incubated for 10 min at 37° C. with the test compounds, prior to their addition to the chemotaxis chamber. Migration was carried out at 37° C. in humidified air with 5% CO2 for 2 h. After the incubation, the migrated eosinophils in the lower Chamber were counted by a hemocytometer.
# The percentage inhibition obtained with the test compound was calculated by comparison to the positive control (migration of non-treated cells in response to the ZAS), according to the formula:
# Percent inhibition=[1-(A/B)]×100
# A: (migration with a test compound)-(spontaneous migration)
# B: (positive control migration)-(spontaneous migration)
# [6] = tested on: Antigen-induced Bronchoconstriction; assay: Effect on antigen-induced bronchoconstriction in sensitized guinea pigs (Test Example 2"); format: in vivo, guinea pig (male Hartley); conditions: Cavia porcellus, po, read-out: Inhibitory rate; for inhibition at 0.025 mg/kg: 0.025 mg/kg (Table 4"); for inhibition at 0.1 mg/kg: 0.1 mg/kg (Table 4")
# Procedure: (§6) The test animals used were male guinea pigs of the Hartley strain (weighing about 400 to 500 g). These animals were sensitized according to Morris' method [H. R. Morris; Br. J. Pharmac., 67, 179-184 (1979)]. The guinea pigs were injected twice subcutaneously and intraperitoneally, each time with 25 mg of egg albumin (grade 5, Sigma) at weekly intervals. 7 days after the second of these weekly injections, the animals were fasted for one day and then exposed to an aerosol of egg albumin (10 mg/ml). All of the animals so exposed responded with convulsions, indicating respiratory distress due to airway constriction, within 6 minutes.
# 60 minutes before the egg albumin challenge, one of the test compounds shown in the following Table 4" was administered orally to each of the animals.
# [7] = tested on: Antigen-induced Bronchoconstriction; assay: Effect on antigen-induced bronchoconstriction in sensitized guinea pigs (Test Example 2); format: in vivo, guinea pig (male Hartley); conditions: Cavia porcellus, po, 60 min before challenge, read-out: Inhibitory rate
# Procedure: as §6, with “were” for “were injected twice”, “intraperitoneally injected twice,” for “intraperitoneally,”
# 60 minutes before the egg albumin challenge, one of the test compounds shown in the following Table 5 was administered orally to each of the animals.
smiles,measurement,setting,value
"OCCN1CCN2c3ccccc3Cn3cccc3C2C1 (stereo not drawn) [Prior art compound D, 2-(2-hydroxyethyl)-1,3,4,14b-tetrahydro-2H, 10H-pyrazino[1,2-a]pyrrolo[2,1-c][1,4]benzodiazepine, reference compound]",inhibition at 3.1 mg/kg,[1],30%
same,inhibition at 3.1 mg/kg,[2],30%
O=C(O)CCCN1CCN2c3ccccc3Cc3ccccc3[C@H]2C1 [22 S-isomer],"AD (oral dose which prolonged the pentobarbital-induced anesthesia by 15%, AD15)","[3]; po, guinea pigs",75 mg/kg
O=C(O)CCCN1CCN2c3ccccc3Cc3ccccc3[C@@H]2C1 [22 HCl R-isomer],inhibition at 0.1 mg/kg,[4],59%
same,inhibition at 0.1 µg/mL,[5],53%
same,inhibition at 0.05 mg/kg,[2],55%
same,inhibition at 0.2 mg/kg,[2],67%
same,inhibition at 0.025 mg/kg,[6],40%
same,inhibition at 0.1 mg/kg,[6],80%
same,inhibition at 0.4 mg/kg,"[6]; 0.4 mg/kg (Table 4"")",100%
"O=C(O)CCCN1CCN2c3ccccc3Cc3ccccc3C2C1 (racemic) [Example 22, 4-(1,2,3,4,10,14b-Hexahydrodibenzo[c,f]pyrazino[1,2-a]azepin-2-yl)butanoic acid]","AD (oral dose which prolonged the pentobarbital-induced anesthesia by 15%, AD15)","[3]; po, guinea pigs",59 mg/kg
O=C(O)CCCN1CCN2c3ccccc3Cc3ccccc3[C@@H]2C1 [22 R-isomer],prolongation of anesthesia side effect,[3]; in words,extremely low
same,"AD (oral dose which prolonged the pentobarbital-induced anesthesia by 15%, AD15)","[3]; po, guinea pigs",123 mg/kg
same,amount of R-isomer required as compared with the racemate for the same prolongation time,"[3]; ratio to racemate, po, guinea pigs",about double
"NC(=O)COCCN1CCN2c3ccccc3Cc3ccccc3C2C1 (stereo not drawn) [Example 26, 2-(1,2,3,4,10,14b-Hexahydrodibenzo[c,f]pyrazino[1,2-a]azepin-2-yl)ethoxyacetamide]",inhibition at 0.05 mg/kg,[1],44%
same,inhibition at 0.2 mg/kg,[1],63%
same,inhibition at 0.4 mg/kg,[7],80%
"CCOC(=O)CCCN1CCN2c3ccccc3Cc3ccccc3C2C1 (racemic) [Example 19, Ethyl 4-(1,2,3,4,10,14b-hexahydrodibenzo[c,f]pyrazino[1,2-a]azepin-2-yl)butanoate]",inhibition at 0.05 mg/kg,[1],55%
same,inhibition at 0.2 mg/kg,[1],61%
same,inhibition at 0.025 mg/kg,[7]; 0.025 mg/kg,40%
same,inhibition at 0.4 mg/kg,[7],100%
"O=C(O)COCCN1CCN2c3ccccc3Cc3ccccc3[C@@H]2C1 [Example 65, (R)-2-(1,2,3,4,10,14b-hexahydrodibenzo[c,f]pyrazino[1,2-a]azepin-2-yl)ethoxyacetic acid monohydrate]",inhibition at 0.05 mg/kg,[1],45%
same,inhibition at 0.4 mg/kg,[1]; 0.4 mg/kg,58%
same,inhibition at 0.1 mg/kg,[7]; 0.1 mg/kg,60%
"NC(=O)CCN1CCN2c3ccccc3Cc3ccccc3C2C1 (stereo not drawn) [Prior art compound F, 2-(2-carboxamidoethyl)-1,2,3,4,10,14b-hexahydrodibenzo[c,f]pyrazino[1,2-a]azepine, reference compound]",inhibition at 3.1 mg/kg,[1],52%
same,inhibition at 3.1 mg/kg,[2],52%
"O=C(O)CCCN1CCN2c3ccccc3Cn3cccc3[C@H]2C1 [3""]",inhibition at 0.05 mg/kg,[2],66%
same,inhibition at 0.2 mg/kg,[2],72%
same,inhibition at 0.025 mg/kg,[6],60%
same,inhibition at 0.1 mg/kg,[6],100%
